# Data as given in patent US12383567B2, “Use of cannabinoids in the treatment of epilepsy” (Jazz Pharmaceuticals Research UK Limited, priority 2017, dated 2025).
# Test: Drug-drug interaction between cannabidiol (CBD) and tacrolimus in an epilepsy patient (clinical trial, open label phase)
# Format: in vivo, human
# Description: The patient was a person with refractory epilepsy receiving the immunosuppressant drug tacrolimus for interstitial nephritis.
# The patient had been stable on tacrolimus at a dose of 5 mg twice per day for a year prior to entry into a clinical trial on the use of CBD to treat childhood-onset epilepsy. At the time of entry into the study their blood level of tacrolimus was between 3.9 and 8.4 ng/mL.
# The patient was initially randomized to the sesame oil placebo arm of the trial, during this phase there was no change in the levels of tacrolimus or serum creatine.
# The dose of tacrolimus was reduced repeatedly while receiving CBD as described in FIG. 1. A dose of 0.5 mg twice per day (a 10-fold reduction) was finally reached.
# [1] = during the time the subject was taking CBD with tacrolimus
structure (smiles),measurement,setting,value
"C=C(C)[C@@H]1CCC(C)=C[C@H]1c1c(O)cc(CCCCC)cc1O [CBD, Cannabidiol]",blood urea nitrogen (BUN) change,[1],significant increase
same,serum creatine levels change,[1],significant increase
same,tacrolimus toxicity,"open label phase, receiving CBD concurrently with tacrolimus",signs of tacrolimus toxicity
